One data set concerns Progesterone receptor. To be noted: DeManno et al., Steroids 68 (2003); cited from earlier work.
A short description of data set [1]: In vitro metabolism of 14C-labeled Compound 1 in human liver microsomes. The class given is in vitro ADME. The method, then:
Human liver microsomes were incubated with (3α,11β,17β)-11-[4-(^14C-methylsulfonyl)phenyl]-17-(pentafluoroethyl)estra-4,9-diene-3,17-diol (Compound 1).
(§1) The incubation mixture containing buffer, reconstituting system and microsomal protein was preincubated at 37° C. for 3 min. Incubation was started by the addition of the solution containing (3α,11β,17β)-11-[4-(methylsulfonyl)phenyl]-17-(pentafluoroethyl)estra-4,9-diene-3,17-diol (Compound 1). The samples were incubated at 37° C. in a continuously operating shaking water bath. The incubation reaction was stopped by the addition of 160 μL acetonitrile. The stopped incubations were centrifuged for 10 minutes at 13000 rpm (4° C.) and stored at −18° C. until they were subsequently analysed. 50 μL of the supernatant was examined by chromatography and detected by radiometry and mass spectrometry.

A short description of data set [2]: Plasma concentrations and pharmacokinetic parameters of Compounds 1 and 2 in rats after oral Compound 1. Format: in vivo, rat. To be noted: for Cmax: po. The method, then: Under the same conditions as described in Example 2 three single dosages of Compound 1 (0.2, 1.0 and 5 mg/kg/day) were administered to rats. Blood samples were taken from the rats at several time-points (1, 2, 4, 7 and 24 h, N=3 animals at each time-point), to allow for calculation of AUC (0-24) and Cmax of compound 1 and compound 2 in rat plasma. The plasma samples were stored at −15° C. until analysis. Compound 1 and 2 were determined in plasma after protein precipitation with acetonitrile containing the internal standards for compound 1 and compound 2. The supernatant was analyzed by separation employing high-pressure liquid chromatography and tandem mass spectrometric detection. The lower limit of quantitation (LLOQ) for Compound 1 was 1.00 μg/L, the linear range between 1.00 and 200 μg/L. The lower limit of quantitation (LLOQ) for Compound 2 was 0.200 μg/L, the linear range between 0.200 and 200 μg/L. A sample volume of 0.1 mL plasma was used. The precision for Compound 1 ranged between 0.97 and 3.73%, accuracy between 99.8 and 101.3%, for Compound 2 precision ranged between 2.01 and 6.19%, accuracy between 92.3 and 96.6% calculated from the study quality control samples.

In the next data set the target is recombinant human CYP3A4 (Homo sapiens, UniProt P08684). The experiment in a line: In vitro metabolism of 14C-labeled Compound 1 in recombinant human CYP3A4 enzyme. The class given is in vitro ADME. The method, then: Recombinant human CYP3A4 was incubated with (3α,11β,17β)-11-[4-(^14C-methylsulfonyl)phenyl]-17-(pentafluoroethyl)estra-4,9-diene-3,17-diol (Compound 1).
The incubation mixture containing buffer, reconstituting system and CYP3A4 protein was prepared and given into a 37° C. shaking water bath. Incubation was started by the addition of the solution containing (3α,11β,17β)-11-[4-(methylsulfonyl)phenyl]-17-(pentafluoroethyl)estra-4,9-diene-3,17-diol (Compound 1). The samples were incubated at 37° C. in a continuously operating shaking water bath. 200 μL of the incubation mixture were removed after incubation time and the reaction was stopped by the addition of 120 μL acetonitrile on an ice bath. The stopped incubations were centrifuged for 10 minutes at 12000 rpm (7° C.). After removing of the supernatant from the protein pellet the supernatant was stored at −20° C. until they were subsequently analysed. 50 μL of the supernatants was examined by chromatography and detected by radiometry and mass spectrometry.

Data set [3] concerns the target T1, human progesterone receptor B (Homo sapiens, UniProt P06401).
T1 construct: expressed in transfected cells; host or cells: SK-N-MC (human neuroblastoma cells), stably transfected
T1 sequence (P06401 1-933): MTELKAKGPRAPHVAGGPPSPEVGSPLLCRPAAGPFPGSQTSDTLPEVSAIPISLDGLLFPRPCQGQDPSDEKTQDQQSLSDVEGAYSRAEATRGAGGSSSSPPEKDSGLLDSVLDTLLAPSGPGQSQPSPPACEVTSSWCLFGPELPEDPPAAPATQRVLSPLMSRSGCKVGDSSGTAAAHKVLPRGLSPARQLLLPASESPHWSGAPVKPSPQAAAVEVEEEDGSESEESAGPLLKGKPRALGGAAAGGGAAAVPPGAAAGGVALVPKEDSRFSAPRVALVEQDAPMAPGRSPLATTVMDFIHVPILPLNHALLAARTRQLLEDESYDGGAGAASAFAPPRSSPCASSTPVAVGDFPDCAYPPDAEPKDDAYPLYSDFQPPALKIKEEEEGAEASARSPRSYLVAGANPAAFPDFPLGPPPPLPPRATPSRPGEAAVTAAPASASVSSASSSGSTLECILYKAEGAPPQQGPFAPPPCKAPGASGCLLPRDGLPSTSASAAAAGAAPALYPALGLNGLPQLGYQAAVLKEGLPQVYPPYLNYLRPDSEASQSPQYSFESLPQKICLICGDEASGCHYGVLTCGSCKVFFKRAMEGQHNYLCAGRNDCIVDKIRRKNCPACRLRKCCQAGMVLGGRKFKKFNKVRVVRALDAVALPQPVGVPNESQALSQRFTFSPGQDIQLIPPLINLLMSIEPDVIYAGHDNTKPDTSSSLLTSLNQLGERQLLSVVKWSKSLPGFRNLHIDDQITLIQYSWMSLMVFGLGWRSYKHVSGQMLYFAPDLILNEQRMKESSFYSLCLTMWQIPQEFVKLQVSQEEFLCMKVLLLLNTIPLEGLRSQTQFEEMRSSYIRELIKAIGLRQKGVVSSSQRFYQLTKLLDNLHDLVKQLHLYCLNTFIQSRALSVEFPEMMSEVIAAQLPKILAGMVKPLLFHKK
The data set can be described thus: PR-B transactivation assay in SK-N-MC cells (method as described in WO2011/009531). The class given is cell-based. How it is done:
(§2) SK-N-MC cells (human neuroblastoma cells), which have been stably transfected with plasmids, which express the human progesterone receptor B ([…]) or the human progesterone receptor A (pRChPR-A-neo) and a reporter construct (pMMTV-LUC), were incubated for 24 hours either in the absence (negative control) or in the presence of increasing amounts of the respective Compound 2 (0.01 nmol/l, 0.1 nmol/l, 1 nmol/l, 10 nmol/l, 100 nmol/land […]), in order to determine the agonistic efficacy. As positive control of reporter gene induction, the cells were treated with the synthetic gestagen promegestone (0.01 nmol/l, 0.1 nmol/l, 1 nmol/l, 10 nmol/l, 100 nmol/l and […]). For determination of the antagonistic activity, the cells were treated with 0.1 nmol/l promegestone and additionally with increasing amounts of the respective test compound (0.01 nmol/l, 0.1 nmol/l, 1 nmol/l, 10 nmol/l, 100 nmol/l and […]). The activity of the LUC reporter gene (LUC=luciferase) was determined in the cell lysates and was measured as RLU (relative light units).

For data set [4], the target named is T2, human progesterone receptor A (Homo sapiens, UniProt P06401).
T2 construct: expressed in transfected cells; host or cells: SK-N-MC (human neuroblastoma cells), stably transfected
T2 sequence (P06401 1-769 isoform P06401-2): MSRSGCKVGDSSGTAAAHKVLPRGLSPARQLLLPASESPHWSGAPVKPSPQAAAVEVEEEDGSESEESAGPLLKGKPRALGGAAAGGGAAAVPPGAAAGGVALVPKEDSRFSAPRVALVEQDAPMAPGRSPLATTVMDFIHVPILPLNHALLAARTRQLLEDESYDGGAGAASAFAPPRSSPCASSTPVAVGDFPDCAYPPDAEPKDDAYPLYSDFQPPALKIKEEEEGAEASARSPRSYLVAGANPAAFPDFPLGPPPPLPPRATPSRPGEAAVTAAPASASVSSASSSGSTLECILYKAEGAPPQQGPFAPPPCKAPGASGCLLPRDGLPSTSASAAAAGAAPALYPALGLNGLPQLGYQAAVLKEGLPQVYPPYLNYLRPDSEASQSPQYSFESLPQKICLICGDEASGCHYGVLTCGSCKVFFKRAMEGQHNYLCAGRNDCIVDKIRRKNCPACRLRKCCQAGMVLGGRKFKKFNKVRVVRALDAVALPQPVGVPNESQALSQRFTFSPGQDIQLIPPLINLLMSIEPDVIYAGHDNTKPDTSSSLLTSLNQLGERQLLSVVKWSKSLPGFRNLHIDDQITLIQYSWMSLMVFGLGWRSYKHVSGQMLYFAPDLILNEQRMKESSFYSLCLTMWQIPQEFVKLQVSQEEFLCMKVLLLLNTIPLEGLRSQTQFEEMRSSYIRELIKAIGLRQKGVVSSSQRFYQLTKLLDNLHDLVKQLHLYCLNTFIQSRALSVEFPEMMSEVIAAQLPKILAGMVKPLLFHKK
The experiment in a line: PR-A transactivation assay in SK-N-MC cells (method as described in WO2011/009531). The class given is cell-based. How it is done: as §2

The nature of data set [5]: In vitro metabolism of 14C-labeled Compound 2 in human liver cytosol. The class given is in vitro ADME. The method, then:
Human liver cytosol was incubated with (11β,17β)-17-Hydroxy-11-[4-(methylsulphonyl)phenyl]-17-(pentafluoroethyl)estra-4,9-dien-3-one (Compound 2).
as §1, with “and cytosolic” for “and microsomal”, “containing (11β,17β)-17-Hydroxy-11-[4-(methylsulphonyl)phenyl]-17-(pentafluoroethyl)estra-4,9-dien-3-one” for “containing (3α,11β,17β)-11-[4-(methylsulfonyl)phenyl]-17-(pentafluoroethyl)estra-4,9-diene-3,17-diol”, “(Compound 2).” for “(Compound 1).”, “bath. 250 μL of the” for “bath. The”, “incubation mixture” for “incubation reaction”, “of 100” for “of 160”

Data set [6] is described as follows: Plasma concentrations of Compound 3 and its metabolite Compound 2 in rats. Format: in vivo, rat. How it is done:
Under the same conditions as described in Example 3, Compound 3 (5 mg/kg/day) was administered to female rats at a dose of 5 mg/kg. Blood samples were taken from the rats at several time-points (0.5, 1, 3, 6 h, N=3 animals at each time-point), to allow for calculation of AUC (0-inf) of compound 3 and compound 2 in rat plasma.
The plasma samples were stored at −15° C. until analysis. Compound 3 and compound 2 were determined in plasma after protein precipitation with acetonitrile containing the internal standards for compound 3 and compound 2. The supernatant was analyzed by separation employing high-pressure liquid chromatography and tandem mass spectrometric detection. AUC (0-inf) means Area Under the plasma Concentration vs. time curve (0-inf) from zero to infinity.

[7] abbreviates: rat plasma, single p.o. dose of Compound 1, 0.2 mg/kg.

recombinant human CYP3A4, sequence (P08684 whole entry): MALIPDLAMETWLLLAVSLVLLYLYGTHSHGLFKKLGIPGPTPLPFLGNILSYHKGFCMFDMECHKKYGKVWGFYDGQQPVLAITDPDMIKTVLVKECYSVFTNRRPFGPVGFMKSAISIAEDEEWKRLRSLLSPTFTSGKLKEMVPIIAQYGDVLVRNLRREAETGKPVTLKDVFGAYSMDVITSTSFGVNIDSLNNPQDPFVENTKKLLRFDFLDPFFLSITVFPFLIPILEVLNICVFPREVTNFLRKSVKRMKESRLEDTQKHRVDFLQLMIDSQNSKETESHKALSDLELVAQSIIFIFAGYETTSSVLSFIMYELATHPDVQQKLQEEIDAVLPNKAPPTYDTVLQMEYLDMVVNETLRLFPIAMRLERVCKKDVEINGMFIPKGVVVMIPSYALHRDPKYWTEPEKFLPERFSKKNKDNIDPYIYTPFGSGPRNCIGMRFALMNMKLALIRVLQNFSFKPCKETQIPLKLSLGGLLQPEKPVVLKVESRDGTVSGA

In the case of `COC[C@]1(OC)CC[C@H]2[C@@H]3CCC4=CC(=O)CCC4=C3[C@@H](c3ccc(/C=N/O)cc3)C[C@@]21C` [Asoprisnil (J867), Asoprisnil], in the data set on Progesterone receptor, the “Progesterone binding affinity, Relative molar Binding Affinity (RBA)” value was “about 299 % RBA”.

As to `C[C@]12C[C@H](c3ccc(S(C)(=O)=O)cc3)C3=C4CC[C@@H](O)C=C4CC[C@H]3[C@@H]1CC[C@@]2(O)C(F)(F)C(F)(F)F` [Compound 1, (3α,11β,17β)-11-[4-(methylsulfonyl)phenyl]-17-(pentafluoroethyl)estra-4,9-diene-3,17-diol], the “proportion of Compound 1 compared to 0 hr sample” value in data set [1] (1 μM, 0.5 mg/mL protein, after 1 hours incubation) was “marked decrease”; on recombinant human CYP3A4 (after 0.5 and 2 hours incubation with rhCYP3A4), “marked decrease”. For the same molecule, the “Compound 2 formed in the incubation sample” value is recorded as “large quantity” in data set [1] (incubation of 1 μM Compound 1, after 1 hour) and “large quantity” on recombinant human CYP3A4 (incubation of Compound 1 with rhCYP3A4). Further, in data set [2] (after oral Compound 1), the “conversion into Compound 2 in rat” value is “almost completely converted”. Also, the Cmax was below 1 ng/mL in data set [2] (setting [7]); 3.36 ng/mL in data set [2] (rat plasma, single p.o. dose of Compound 1, 1.0 mg/kg); 12.9 ng/mL in data set [2] (rat plasma, single p.o. dose of Compound 1, 5.0 mg/kg). The “Compound 1 Cmax” value in data set [2] (setting [7]) is below 1.00 ng/mL. The “maximum concentration of remaining compound 1 in rat plasma” value in data set [2] (single oral dose of Compound 1, 5.0 mg/kg) is 12.9 µg/L. Further, the “amount of compound 2 in the incubation sample” value on recombinant human CYP3A4 (incubation of Compound 1 with rhCYP3A4, after 120 min) is “decreased remarkably”. Also, the entries for the “Compound 1 (% of 14C-radioactivity)” value on recombinant human CYP3A4 (incubation time with rhCYP3A4 0 h), at recombinant human CYP3A4 (incubation time with rhCYP3A4 0.5 h) and at recombinant human CYP3A4 (incubation time with rhCYP3A4 2 h) were 82%, 52% and 2.7%, respectively.

Turning to `C[C@]12C[C@H](c3ccc(S(C)(=O)=O)cc3)C3=C4CCC(=O)C=C4CC[C@H]3[C@@H]1CC[C@@]2(O)C(F)(F)C(F)(F)F` [Compound 2, (11β,17β)-17-Hydroxy-11-[4-(methylsulphonyl)phenyl]-17-(pentafluoroethyl)estra-4,9-dien-3-one], in data set [3], the “agonistic activity on PR-B” value is listed as “no agonistic activity” and the “antagonism on PR-B” value is “very strong antagonist”. Further, in data set [4], the “agonistic activity on PR-A” value was “no agonistic activity” and the “antagonism on PR-A” value is “very strong antagonist”. The “proportion of Compound 2 compared to 0 hr sample” value in data set [5] (10 μM, 1.0 mg/mL cytosolic protein, NADPH, after 1 and 4 hours) is “marked decrease”. Further, in data set [5] (absence of NADPH generating system as well as presence of NAD co-factor), the “turnover of Compound 2 to Compound 1 in liver cytosol” value is listed as “No turnover”. Moreover, the “Compound 1 formed in the incubation sample” value in data set [5] (incubation of 10 μM Compound 2, after 1 and 4 hours) is on record as “significant quantity”.

On to `C[C@]12C[C@H](c3ccc([S@](C)(=N)=O)cc3)C3=C4CCC(=O)C=C4CCC3C1CC[C@@]2(O)C(F)(F)C(F)(F)F` (stereo partly drawn) [Compound 3, (11β,17β)-17-hydroxy-11-[4-(RS-methylsulphonimidoyl)phenyl]-17-(pentafluoroethyl)estra-4,9-dien-3-one], for which the “conversion into Compound 2 in rat” value in data set [6] (after oral Compound 3) is recorded as “partially converted”. In addition, the AUC(0-inf) in data set [6] (po, rat plasma, single p.o. 5 mg/kg of Compound 3, female rats) is 1240 ng·h/mL.

As usually defined, the Cmax is the highest concentration seen after dosing. Usually AUC(0-inf) stands for the area under the concentration-time curve extrapolated to infinity.

(Values after patent US10894805B2, “Prodrugs of the selective progesterone receptor modulator (SPRM) (11β,17β)-17-Hydroxy-11-[4-(methylsulphonyl)phenyl] -17-(pentafluoroethyl)estra-4,9-dien-3-one” (BAYER PHARMA AKTIENGESELLSCHAFT, priority 2016, dated 2021).)
